Active and inactive are the calls of the source. How the calls were made is not given here.
target: Influenza A virus M2 proton channel (A/TW/4845/1999 H1N1); test: M2 proton channel binding, NMR based, influenza A virus H1N1 strain (AID 1549); details: NMR binding screen, M2 protein

Structure (SMILES)	Kd
CNC(=O)c1c(O)c2ccccc2[nH]c1=O	> 4 mM (inactive)
CC(=O)O[C@@H]1CC2C(C)(C)[C@@H](O)CC[C@]2(C)C2CC[C@@]3(C)[C@H](c4ccoc4)OC(=O)[C@H]4O[C@]43[C@@]21C (some centres undefined)	> 4 mM (inactive)
Cc1n[nH]c(C)c1-c1ccccc1C(=O)O	> 4 mM (inactive)
Cc1cc(O)cc(=O)o1	> 4 mM (inactive)
CC(C)NC(=S)NCc1cnn(C)c1	> 4 mM (inactive)
CC(Sc1ncn[nH]1)C(=O)O (centres undefined)	> 4 mM (inactive)
CS(=O)(=O)Nc1ccccc1C(=O)c1ccccc1	> 4 mM (inactive)
Cc1ccccc1NC(=O)C1CC(=O)N=C(N)S1 (centres undefined)	> 4 mM (inactive)
CCOC(=O)c1ccc2c(c1)nnn2C	> 4 mM (inactive)
CC1CN(C2=NCCN2)CC(C)O1 (centres undefined)	> 4 mM (inactive)
c1cncc(C(N2CCOCC2)N2CCOCC2)c1	> 4 mM (inactive)
O=C1C=C(Nc2ccc(O)cc2)c2ccccc2C1=O	> 4 mM (inactive)
C[C@]12CCC3C(CC[C@H]4C[C@@H](O)CC[C@]34C)C1CCC2=O (some centres undefined)	> 4 mM (inactive)
CS(=O)(=O)Nc1cc2c3c(c1)CCN3C(=O)CC2	> 4 mM (inactive)
CC(=O)Nc1cnn(-c2ccccc2)c(=O)c1Cl	> 4 mM (inactive)
COc1cc2c(cc1OC)C(=O)OC2	> 4 mM (inactive)
Cc1noc(C)c1C(=O)N1CCc2ccccc2C1	> 4 mM (inactive)
Cc1cc(C)n(CCC(=O)O)n1	> 4 mM (inactive)
CC(C)(C)CC(=O)NNC(=O)c1cnccn1	> 4 mM (inactive)
O=C1CCCN1C(=O)CN1CCOCC1	> 4 mM (inactive)

Structure (SMILES)	Kd
O=S1(=O)CCC(NC(=S)Nc2ccccn2)C1 (centres undefined)	> 4 mM (inactive)
CC(=O)O[C@@H]1CC2C(C)(C)C=CC(=O)[C@]2(C)C2CC[C@@]3(C)[C@H](c4ccoc4)OC(=O)C4OC43[C@@]21C (some centres undefined)	> 4 mM (inactive)
COc1cc2c(cc1OC)C1Cc3ccc(OC)c(OC)c3CN1CC2 (centres undefined)	> 4 mM (inactive)
NC1=NC(=O)/C(=C/c2cccs2)S1	> 4 mM (inactive)
OC(c1ccccc1)c1ccccn1 (centres undefined)	> 4 mM (inactive)
CC(C)=CC(=O)Nc1ccc(S(N)(=O)=O)cc1	> 4 mM (inactive)
CCCc1cc(=O)[nH]c2nnc(SCC(C)=O)n12	> 4 mM (inactive)
COc1ccccc1-c1noc(-c2ccncc2)n1	> 4 mM (inactive)
C(=N\n1cnnc1)/c1cccs1	> 4 mM (inactive)
Cn1cnc2nc3n(c2c1=O)CCC3	> 4 mM (inactive)
CN1C(=O)C2CC=C(Cl)CC2C1=O (centres undefined)	> 4 mM (inactive)
COc1ccc(-c2cc(=O)c3c(OC)c(OC)c(OC)c(OC)c3o2)cc1	> 4 mM (inactive)
O=C1CN(C(=O)c2ccccc2F)c2ccccc2N1	> 4 mM (inactive)
NC(=O)c1sc2ccccc2c1Cl	> 4 mM (inactive)
COc1ccc2cc3[n+](cc2c1OC)CCc1cc2c(cc1-3)OCO2	> 4 mM (inactive)
Cn1cnc2cc(NC(=O)c3ccco3)ccc21	> 4 mM (inactive)
COc1cccc(-c2nc(-c3ccccn3)no2)c1OC	> 4 mM (inactive)
CC(C)(C#N)O[C@@H]1O[C@H](CO)[C@@H](O)[C@H](O)[C@H]1O	> 4 mM (inactive)
S=c1nc(Cc2ccccc2)[nH][nH]1	> 4 mM (inactive)
Brc1cccc(-c2nnco2)c1	> 4 mM (inactive)

Structure (SMILES)	Kd
C[C@@H]1CC[C@@]2(OC1)OC1CC3C4CC=C5C[C@@H](O)CC[C@]5(C)C4CC[C@]3(C)C1[C@@H]2C (some centres undefined)	> 4 mM (inactive)
CN(C)C(=O)Oc1cccc(-c2nnco2)c1	> 4 mM (inactive)
CCCCCCCCCCCC1=C(O)C(=O)C=C(O)C1=O	> 4 mM (inactive)
COc1ncccc1N	> 4 mM (inactive)
CCCCCC1C(=O)CCC1CC(=O)O (centres undefined)	> 4 mM (inactive)
COC(=O)c1cc2cc(N)ccc2s1	> 4 mM (inactive)
COCC(=O)Nc1cc2c3c(c1)CCN3C(=O)CC2	> 4 mM (inactive)
CCN1CCC(NC2CCCCNC2=O)CC1 (centres undefined)	> 4 mM (inactive)
Cc1occc1C(=O)Nc1sccc1C(N)=O	> 4 mM (inactive)
O=C1CNC(=O)/C1=C/c1ccc(O)cc1	> 4 mM (inactive)
Cc1cc(N(CN2CCCC2=O)C(=O)c2ccccc2)no1	> 4 mM (inactive)
CC(=O)NC(O)C(=O)c1ccccc1 (centres undefined)	> 4 mM (inactive)
CC1Cc2nc(SCC(N)=O)n(C)c(=O)c2S1 (centres undefined)	> 4 mM (inactive)
COc1ccccc1CNc1nc2nc(C)cc(=O)n2[nH]1	> 4 mM (inactive)
COc1ccc(-c2coc3cc(O)ccc3c2=O)c(OC)c1	> 4 mM (inactive)
Cc1sc2nc[nH]c(=S)c2c1C	> 4 mM (inactive)
Cc1cc(C)cc(C(=O)n2cnnc2N)c1	> 4 mM (inactive)
CC(=O)c1nnc2cc(C)nn2c1C	> 4 mM (inactive)
O=C(O)/C=C1\NC(=O)c2ccccc21	> 4 mM (inactive)

Source: PubChem BioAssay AID1549 (Sanford-Burnham Center for Chemical Genomics, 2009)
